According to US4864023A, “Pyrido(3,2,1-IJ)-1,3,4-benzoxadiazine derivatives” (priority 1988, dated 1989):
In brackets after ≈: the same amount, converted by molar mass. Like-named read-outs stand apart in the source and are kept apart here.

What was measured:
Experiment in all cases: in vitro antibacterial activity, standard agar dilution method
Assay type in all cases: cell-based
[1] = test system: Enterobacter cloacae NR 2946; conditions: NR2946, aerobic, read-out: minimum inhibitory concentration (MIC)
[2] = test system: Staphylococcus aureus FDA 209P JC-1; conditions: FDA209P, read-out: minimum inhibitory concentration (MIC)
[3] = test system: Bordetella bronchiseptica ATCC 4617; conditions: ATCC4617, aerobic, read-out: minimum inhibitory concentration (MIC)
[4] = test system: Proteus vulgaris OX19 ATCC 6898; conditions: ATCC6898, aerobic, read-out: minimum inhibitory concentration (MIC)
[5] = test system: Staphylococcus aureus NR 2855; conditions: NR2855; Staphylococcus aureus NR 2855; aerobic; agar dilution; read-out: minimum inhibitory concentration (MIC)
[6] = test system: Proteus rettgeri ATCC 14505; conditions: Providencia rettgeri, ATCC14505, aerobic, read-out: minimum inhibitory concentration (MIC)
Escherichia coli NR 2630 = test system: Escherichia coli NR 2630
[7] = test system: Serratia marcescens IFO 12648; conditions: IFO12648, aerobic, read-out: minimum inhibitory concentration (MIC)
[8] = test system: Enterobacter aerogenes NR 2945; conditions: Klebsiella aerogenes, NR2945, aerobic, read-out: minimum inhibitory concentration (MIC)
[9] = test system: Staphylococcus epidermidis NR 2942; conditions: NR2942, aerobic, read-out: minimum inhibitory concentration (MIC)
[10] = test system: Alcaligenes faecalis IFO 13111; conditions: IFO13111, aerobic, read-out: minimum inhibitory concentration (MIC)
[11] = test system: Escherichia coli NIHJ JC-2; conditions: NIHJJC2, aerobic, read-out: minimum inhibitory concentration (MIC)
[12] = test system: Staphylococcus epidermidis IFO 12993; conditions: IFO12993, aerobic, read-out: minimum inhibitory concentration (MIC)
[13] = test system: Staphylococcus aureus Smith; conditions: read-out: minimum inhibitory concentration (MIC)
[14] = test system: Pseudomonas aeruginosa A3; conditions: aerobic, read-out: minimum inhibitory concentration (MIC)
[15] = test system: Klebsiella pneumoniae FDA PCI 602; conditions: FDAPCI602, aerobic, read-out: minimum inhibitory concentration (MIC)
[16] = test system: Enterococcus faecalis NR 2943; conditions: NR2943, aerobic, read-out: minimum inhibitory concentration (MIC)
[17] = test system: Citrobacter freundii IFO 12681; conditions: IFO12681, aerobic, read-out: minimum inhibitory concentration (MIC)
[18] = test system: Pseudomonas stutzeri IFO 12695; conditions: Stutzerimonas stutzeri, IFO12695, aerobic, read-out: minimum inhibitory concentration (MIC)
[19] = test system: Pseudomonas aeruginosa NR 2950; conditions: NR2950, aerobic, read-out: minimum inhibitory concentration (MIC)
[20] = test system: Bacillus subtilis PCI 219; conditions: PCI219, aerobic, read-out: minimum inhibitory concentration (MIC)
[21] = test system: Salmonella typhimurium IFO 12529; conditions: Salmonella enterica, aerobic, read-out: minimum inhibitory concentration (MIC)
[22] = NR2630, Escherichia coli NR 2630, aerobic, agar dilution, read-out: minimum inhibitory concentration (MIC)
[23] = Staphylococcus aureus FDA 209P JC-1, aerobic, agar dilution
[24] = Staphylococcus aureus Smith, aerobic, agar dilution

Compound	MIC [1] [µg/mL]	MIC [3] [µg/mL]	MIC [4] [µg/mL]	MIC [5] [µg/mL]	MIC [6] [µg/mL]	MIC (Escherichia coli NR 2630; [22]) [µg/mL]	MIC [7] [µg/mL]	MIC [8] [µg/mL]	MIC [9] [µg/mL]	MIC [10] [µg/mL]	MIC [11] [µg/mL]	MIC [12] [µg/mL]	MIC [14] [µg/mL]	MIC [15] [µg/mL]	MIC [16] [µg/mL]	MIC [17] [µg/mL]	MIC [18] [µg/mL]	MIC [19] [µg/mL]	MIC [20] [µg/mL]	MIC [21] [µg/mL]	other results
CN1COc2c(N3CCC(O)C3)c(F)cc3c(=O)c(C(=O)O)cn1c23 (stereo not shown) [Example 21, 9-fluoro-10-(3-hydroxy-1-pyrrolidinyl)-3-methyl-7-oxo-2,3-dihydro-7H-pyrido[3,2,1-ij]-1,3,4-benzoxadiazine-6-carboxylic acid]	0.78 (≈ 2.23 µM)	0.78 (≈ 2.23 µM)	0.05 (≈ 0.143 µM)	0.2 (≈ 0.573 µM)	0.78 (≈ 2.23 µM)	0.2 (≈ 0.573 µM)	0.39 (≈ 1.12 µM)	0.2 (≈ 0.573 µM)	0.39 (≈ 1.12 µM)	0.78 (≈ 2.23 µM)	0.39 (≈ 1.12 µM)	0.39 (≈ 1.12 µM)	1.56 (≈ 4.47 µM)	0.78 (≈ 2.23 µM)	3.13 (≈ 8.96 µM)	0.78 (≈ 2.23 µM)	0.2 (≈ 0.573 µM)	3.13 (≈ 8.96 µM)	0.05 (≈ 0.143 µM)	0.39 (≈ 1.12 µM)	MIC ([2]; Staphylococcus aureus): 0.39 µg/mL (≈ 1.12 µM); MIC ([13]; Staphylococcus aureus): 0.39 µg/mL (≈ 1.12 µM)
Cc1cn(-c2c(F)cc3c(=O)c(C(=O)O)cn4c3c2OCN4C)cn1 [Example 22]	0.1 (≈ 0.29 µM)	1.56 (≈ 4.53 µM)	0.0065 (≈ 0.0189 µM)	0.39 (≈ 1.13 µM)	0.78 (≈ 2.27 µM)	0.025 (≈ 0.0726 µM)	0.78 (≈ 2.27 µM)	0.1 (≈ 0.29 µM)	0.2 (≈ 0.581 µM)	3.13 (≈ 9.09 µM)	0.1 (≈ 0.29 µM)	0.39 (≈ 1.13 µM)	1.56 (≈ 4.53 µM)	0.39 (≈ 1.13 µM)	3.13 (≈ 9.09 µM)	0.1 (≈ 0.29 µM)	0.1 (≈ 0.29 µM)	6.25 (≈ 18.2 µM)	0.05 (≈ 0.145 µM)	0.1 (≈ 0.29 µM)	MIC [2, 23]: 0.2 µg/mL (≈ 0.581 µM); MIC [13, 24]: 0.2 µg/mL (≈ 0.581 µM)
CC1Oc2c(N3CCNCC3)c(F)cc3c(=O)c(C(=O)O)cn(c23)N1C (stereo not shown) [Example 25]	0.78 (≈ 2.15 µM)	100 (≈ 276 µM)	0.1 (≈ 0.276 µM)	12.5 (≈ 34.5 µM)	25 (≈ 69 µM)		3.13 (≈ 8.64 µM)	0.39 (≈ 1.08 µM)	6.25 (≈ 17.2 µM)	50 (≈ 138 µM)	0.78 (≈ 2.15 µM)	6.25 (≈ 17.2 µM)	3.13 (≈ 8.64 µM)	3.13 (≈ 8.64 µM)	100 (≈ 276 µM)	0.78 (≈ 2.15 µM)	0.39 (≈ 1.08 µM)	50 (≈ 138 µM)	0.78 (≈ 2.15 µM)	0.2 (≈ 0.552 µM)	MIC [2, 23]: 6.25 µg/mL (≈ 17.2 µM); MIC (Escherichia coli NR 2630; Escherichia coli, NR2630, read-out: minimum inhibitory concentration (MIC)): 0.39 µg/mL (≈ 1.08 µM); MIC [13, 24]: 1.56 µg/mL (≈ 4.31 µM)
CC1Oc2c(N3CCN(C)CC3)c(F)cc3c(=O)c(C(=O)O)cn(c23)N1C (stereo not shown) [Example 26]	0.78 (≈ 2.07 µM)	12.5 (≈ 33.2 µM)	0.39 (≈ 1.04 µM)	1.56 (≈ 4.14 µM)	6.25 (≈ 16.6 µM)	0.2 (≈ 0.531 µM)	1.56 (≈ 4.14 µM)	0.2 (≈ 0.531 µM)	3.13 (≈ 8.32 µM)	12.5 (≈ 33.2 µM)	0.78 (≈ 2.07 µM)	3.13 (≈ 8.32 µM)	6.25 (≈ 16.6 µM)	3.13 (≈ 8.32 µM)	25 (≈ 66.4 µM)	0.78 (≈ 2.07 µM)	0.78 (≈ 2.07 µM)	50 (≈ 133 µM)	0.78 (≈ 2.07 µM)	0.78 (≈ 2.07 µM)	MIC [2, 23]: 3.13 µg/mL (≈ 8.32 µM); MIC [13, 24]: 3.13 µg/mL (≈ 8.32 µM)
CNC1CCN(c2c(F)cc3c(=O)c(C(=O)O)cn4c3c2OCN4C)C1 (stereo not shown) [Example 31]	0.05 (≈ 0.138 µM)	3.13 (≈ 8.64 µM)	0.025 (≈ 0.069 µM)	0.78 (≈ 2.15 µM)	0.39 (≈ 1.08 µM)	0.025 (≈ 0.069 µM)	0.2 (≈ 0.552 µM)	0.025 (≈ 0.069 µM)	0.39 (≈ 1.08 µM)	3.13 (≈ 8.64 µM)	0.05 (≈ 0.138 µM)	0.39 (≈ 1.08 µM)	0.2 (≈ 0.552 µM)	0.2 (≈ 0.552 µM)	12.5 (≈ 34.5 µM)	0.05 (≈ 0.138 µM)	0.025 (≈ 0.069 µM)	1.56 (≈ 4.31 µM)	0.05 (≈ 0.138 µM)	0.025 (≈ 0.069 µM)	MIC [2, 23]: 0.39 µg/mL (≈ 1.08 µM); MIC [13, 24]: 0.2 µg/mL (≈ 0.552 µM)
CCNC1CCN(c2c(F)cc3c(=O)c(C(=O)O)cn4c3c2OCN4C)C1 (stereo not shown) [Example 32]	0.1 (≈ 0.266 µM)	1.56 (≈ 4.14 µM)	0.025 (≈ 0.0664 µM)	0.39 (≈ 1.04 µM)	1.56 (≈ 4.14 µM)	0.025 (≈ 0.0664 µM)	0.39 (≈ 1.04 µM)	0.025 (≈ 0.0664 µM)	0.39 (≈ 1.04 µM)	1.56 (≈ 4.14 µM)	0.1 (≈ 0.266 µM)	0.39 (≈ 1.04 µM)	0.39 (≈ 1.04 µM)	0.39 (≈ 1.04 µM)	6.25 (≈ 16.6 µM)	0.1 (≈ 0.266 µM)	0.1 (≈ 0.266 µM)	3.13 (≈ 8.32 µM)	0.05 (≈ 0.133 µM)	0.025 (≈ 0.0664 µM)	MIC [2, 23]: 0.2 µg/mL (≈ 0.531 µM); MIC [13, 24]: 0.1 µg/mL (≈ 0.266 µM)
COC1CCN(c2c(F)cc3c(=O)c(C(=O)O)cn4c3c2OCN4C)C1 (stereo not shown) [Example 37, 9-fluoro-10-(3-methoxy-1-pyrrolidinyl)-3-methyl-7-oxo-2,3-dihydro-7H-pyrido[3,2,1-ij]-1,3,4-benzoxadiazine-6-carboxylic acid]	0.2 (≈ 0.55 µM)	1.56 (≈ 4.29 µM)	≤ 0.0008	≤ 0.0008	6.25 (≈ 17.2 µM)	≤ 0.0008	0.78 (≈ 2.15 µM)	0.1 (≈ 0.275 µM)	≤ 0.0008	12.5 (≈ 34.4 µM)	0.1 (≈ 0.275 µM)	0.025 (≈ 0.0688 µM)	6.25 (≈ 17.2 µM)	3.13 (≈ 8.61 µM)	3.13 (≈ 8.61 µM)	0.78 (≈ 2.15 µM)	0.013 (≈ 0.0358 µM)	25 (≈ 68.8 µM)	≤ 0.0008	0.2 (≈ 0.55 µM)	MIC [2, 23]: 0.0016 µg/mL (≈ 0.0044 µM); MIC [13, 24]: ≤ 0.0008 µg/mL
